Our source for the inhibition values is paper PMC8496750, “Identification of the organic anion transporting polypeptides responsible for the hepatic uptake of the major metabolite of epyrifenacil, S‐3100‐CA, in mice” (Pharmacology Research & Perspectives, 2021).

Molecules are shown by their SMILES.

For the data set, the target named is T1, mouse Oatp1a1 (Mus musculus, UniProt Q9QXZ6).
T1 sequence (Q9QXZ6 1-670): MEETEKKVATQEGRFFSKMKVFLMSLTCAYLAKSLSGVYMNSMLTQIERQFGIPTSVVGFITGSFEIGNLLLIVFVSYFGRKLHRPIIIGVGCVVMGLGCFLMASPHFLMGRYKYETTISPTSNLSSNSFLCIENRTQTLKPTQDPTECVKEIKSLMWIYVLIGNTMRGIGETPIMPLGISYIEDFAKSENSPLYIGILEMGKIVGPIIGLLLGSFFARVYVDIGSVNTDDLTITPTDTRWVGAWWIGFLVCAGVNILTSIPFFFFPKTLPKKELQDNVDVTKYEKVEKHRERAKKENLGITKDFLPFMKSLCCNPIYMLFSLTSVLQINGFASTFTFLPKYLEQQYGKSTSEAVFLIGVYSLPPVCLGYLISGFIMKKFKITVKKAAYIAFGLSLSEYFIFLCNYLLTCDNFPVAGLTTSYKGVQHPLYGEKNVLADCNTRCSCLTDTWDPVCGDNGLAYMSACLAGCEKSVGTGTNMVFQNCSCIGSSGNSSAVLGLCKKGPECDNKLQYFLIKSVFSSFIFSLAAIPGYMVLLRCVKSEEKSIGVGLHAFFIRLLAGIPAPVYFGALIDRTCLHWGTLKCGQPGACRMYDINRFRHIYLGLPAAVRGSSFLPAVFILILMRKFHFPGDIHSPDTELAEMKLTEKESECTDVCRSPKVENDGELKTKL
Kind of data set: in vitro. To be noted: 293FT cells transiently transfected with mouse Oatp1a1, probe radiolabeled S‐3100‐CA.

One may read the inhibition as the relative decrease from the control value, in per cent. The low end stands for little suppression, the high end for strong suppression.

Experimental: 293FT cells were purchased from Thermo Fisher Scientific, Inc.. The cells were grown in Dulbecco's modified Eagle medium (supplemented with 4.5 g/L glucose and 2 mM L‐glutamine) at 37°C, 5% CO2, and 95% humidity. The cells were passaged 3 times per week by harvesting cells using trypsin and plating at a density of 1.0 × 10^4 cells/cm^2 in a 10 cm cell culture plate for maintenance culture. The 293FT cells were detached using trypsin and re‐seeded at a density of 2.5 × 10^4 cells/cm^2 in BioCoat™ Collagen I 6‐well plates (Corning Inc.) for transfection and then treated with 1.2 μg of plasmid vector and 3.2 μl of Lipofectamine™ 2000 Transfection Reagent (Thermo Fisher Scientific, Inc.) according to the manufacturer's instructions. After a 3‐h treatment, the transfection medium was replaced with a fresh cell culture medium and incubated at 37°C with 95% humidity and 5% CO2 until ready for the assay.
Transport experiments were conducted approximately 24 h post‐transfection. The experiments were initiated by aspirating culture medium and addition of pre‐warmed radiolabeled substrate solution (final 1.0% of acetonitrile or 0.9% of ethanol in phosphate‐buffered saline (PBS[−])) to each well. After a 10‐min incubation, cells were washed twice with 1 ml of ice‐cold PBS(−) and lysed with 700 μl of 1.0 M NaOH for 3 h or more at room temperature. The lysate was transferred to a 1.5‐ml tube, and neutralized with 350 μl of 2.0 M HCl and 350 μl of 2.0% sodium dodecyl sulfate (SDS) solution. From the lysate, 1.0 ml was transferred to a vial containing 10 ml of Emulsifier Scintillator Plus to measure the radioactivity in the LSC. The protein concentration of the cell lysate was also measured using a Pierce™ BCA Protein Assay Kit (Thermo Fisher Scientific, Inc.), which was used to normalize, according to the cell number, the radioactivity in the cell lysate extract. The protein assay was performed in duplicate. Each sample type was assayed in triplicate wells, and each run was performed twice. […] Each sample type was assayed in triplicate wells.

As for `CO[C@H]1/C=C/O[C@@]2(C)Oc3c(C)c(O)c4c(O)c(c(/C=N/N5CCN(C)CC5)c(O)c4c3C2=O)NC(=O)/C(C)=C\C=C\[C@H](C)[C@H](O)[C@@H](C)[C@@H](O)[C@@H](C)[C@H](OC(C)=O)[C@@H]1C` [RIF, Rifampicin], the inhibition at 10 min, 10 µM is more than 50%.
